Source: article PMC10004195, “Novel Dual-Target Kinase Inhibitors of EGFR and ALK Were Designed, Synthesized, and Induced Cell Apoptosis in Non-Small Cell Lung Cancer” (Molecules, 2023)
Like-named read-outs stand apart in the source and are kept apart here.

Key:
H2228 (EML4-ALK) cells = test: CCK8 antiproliferative assay, H2228 cells; type: cell-based, human; conditions: read-out: IC50 H2228
From the text: (§1) The human cancer cell lines (H1975, H2228) used in this study were purchased from the Guangzhou ginny ou biotechnology Co., Ltd. (Guangzhou, China). The human cancer cell lines (NCI-H522) used in this study were purchased from the Shenzhen Haodi Huatuo Biotechnology Co., LTD (Shenzhen, China). The human cancer cell lines (LOVO, HLF, BJ, LO2) used in this study were purchased from the Laboratory Animal Service Center at Sun Yat-sen University (Guangzhou, China). […] Cell lines LOVO, HLF, BJ, and LO2 were cultivated in DMEM containing 10% (v/v) heat-inactivated fetal bovine serum (FBS), 100 units/mL penicillin, and 100 μg/mL streptomycin.

H522 cells = test: CCK8 antiproliferative assay, H522 cells; type: cell-based; conditions: Homo sapiens, NCI-H522, 72 h
From the text: The human cancer cell lines (H1975, H2228) used in this study were purchased from the Guangzhou ginny ou biotechnology Co., Ltd. (Guangzhou, China). The human cancer cell lines (NCI-H522) used in this study were purchased from the Shenzhen Haodi Huatuo Biotechnology Co., LTD (Shenzhen, China). The human cancer cell lines (LOVO, HLF, BJ, LO2) used in this study were purchased from the Laboratory Animal Service Center at Sun Yat-sen University (Guangzhou, China). Cell lines were cultivated in 1640 containing 10% (v/v) heat-inactivated fetal bovine serum (FBS), 100 units/mL penicillin, and 100 μg/mL streptomycin. Cell lines LOVO, HLF, BJ, and LO2 were cultivated in DMEM containing 10% (v/v) heat-inactivated fetal bovine serum (FBS), 100 units/mL penicillin, and 100 μg/mL streptomycin.

[1] = tested on: H1975 (EGFR T790M/L858R) cells; test: CCK8 antiproliferative assay, H1975 cells; type: cell-based, human
From the text: as §1

[2] = tested on: LO2 (human normal liver cells); test: Cytotoxicity test on nontumorigenic cells, LO2; type: cell-based; conditions: Homo sapiens; LO2, mean ± SE; read-out: Toxicity to normal cells, IC50 LO2
From the text: (§2) It is critical to evaluate the balance between the safety and efficacy of drugs for the development of new drugs; thus, we then conducted a cytotoxicity test on […] types of nontumorigenic cell lines from different origins, including LO2 (human normal liver cells), HK2 (human kidney proximal convoluted tubule epithelial cells), HLF (human embryonic lung fibroblast), 293A (human embryonic kidney cells), and HUVEC (human umbilical vein endothelial cells). […] In addition, we evaluated the compound’s safety in vivo by performing acute toxicity tests in mice, and 9j was injected intravenously at concentrations of 100 mg/kg, 150 mg/kg, and 300 mg/kg.
(§3) A total of 7000 cells per well were seeded in a 96-well plate with at least three technical replicates; then, exposed to different concentrations (10, 5, 1, 0.1, 0.05, 0.01 uM) of the test compounds for 72 h. After the treatment, CCK8 (Sigma, St. Louis, MO, USA) was added to each well under sterile conditions (to a final concentration of 10% of the total volume) and the plates were incubated for 2–4 h at 37 °C. Absorbance was measured at 450 nm in a microplate reader.

[3] = tested on: 293A (human embryonic kidney cells); test: Cytotoxicity test on nontumorigenic cells, 293A; type: cell-based; conditions: Homo sapiens, 293A, read-out: Toxicity to normal cells, IC50 293A
From the text: as §2, §3

[4] = tested on: HLF (human embryonic lung fibroblast); test: Cytotoxicity test on nontumorigenic cells, HLF; type: cell-based; conditions: Homo sapiens, Fibroblast, read-out: Toxicity to normal cells, IC50 HLF
From the text: as §2, §3

[5] = tested on: HUVEC (human umbilical vein endothelial cells); test: Cytotoxicity test on nontumorigenic cells, HUVEC; type: cell-based; conditions: Homo sapiens; HUVEC, mean ± SE; read-out: Toxicity to normal cells, IC50 HUVEC
From the text: as §2, §3

[6] = tested on: HK2 (human kidney proximal convoluted tubule epithelial cells); test: Cytotoxicity test on nontumorigenic cells, HK2; type: cell-based; conditions: Homo sapiens, Epithelial cell; HK2, mean ± SE; read-out: Toxicity to normal cells, IC50 HK2
From the text: as §2, §3

[7] = Homo sapiens, NCI-H2228, 72 h, CCK8 assay, 72 h, H2228 (EML4-ALK)
[8] = Homo sapiens, NCI-H1975, 72 h, CCK8 assay, 72 h, H1975 (EGFR T790M/L858R), read-out: IC50 H1975
[9] = CCK8 assay, 72 h, H1975 (EGFR T790M/L858R), read-out: IC50 H1975

SMILES | IC50 (H2228 (EML4-ALK) cells; [7]) | IC50 (H522 cells) | IC50 [1, 8] | also measured
C=CC(=O)Nc1cc(Nc2ncc(Cl)c(Nc3ccccc3[S+]([O-])C3CC3)n2)c(OC)cc1C1CCN(C)CC1 (stereo not shown) [9a, N-(5-((5-Chloro-4-((2-(cyclopropylsulfinyl)phenyl)amino)pyrimidin-2-yl)amino)-4-methoxy-2-(1-methylpiperidin-4-yl)phenyl)acrylamide] | 121 ± 90 nM | > 10000 nM | 451 ± 70 nM | –
C=CC(=O)Nc1cc(Nc2ncc(Cl)c(Nc3ccccc3[S+]([O-])CC3CC3)n2)c(OC)cc1C1CCN(C)CC1 (stereo not shown) [9b, N-(5-((5-Chloro-4-((2-((cyclopropylmethyl)sulfinyl)phenyl)amino)pyrimidin-2-yl)amino)-4-methoxy-2-(1-methylpiperidin-4-yl)phenyl)acrylamide] | 98.9 nM | > 10000 nM | 68.9 nM | IC50 (H2228 (EML4-ALK) cells; CCK8 assay, 72 h, H2228 (EML4-ALK)): 99 ± 7 nM; IC50 [1, 9]: 69 ± 7 nM
C=CC(=O)Nc1cc(Nc2ncc(Cl)c(Nc3ccc(F)cc3[S+]([O-])CC3CC3)n2)c(OC)cc1C1CCN(C)CC1 (stereo not shown) [9c, N-(5-((5-Chloro-4-((2-((cyclopropylmethyl)sulfinyl)-4-fluorophenyl)amino)pyrimidin-2-yl)amino)-4-methoxy-2-(1-methylpiperidin-4-yl)phenyl)acrylamide] | 103 ± 70 nM | > 10000 nM | 271 ± 130 nM | –
C=CC(=O)Nc1cc(Nc2ncc(Cl)c(Nc3ccc(Cl)cc3[S+]([O-])CC3CC3)n2)c(OC)cc1C1CCN(C)CC1 (stereo not shown) [9d, N-(5-((5-Chloro-4-((4-chloro-2-((cyclopropylmethyl)sulfinyl)phenyl)amino)pyrimidin-2-yl)amino)-4-methoxy-2-(1-methylpiperidin-4-yl)phenyl)acrylamide] | 89 ± 30 nM | > 10000 nM | 114 ± 80 nM | –
C=CC(=O)Nc1cc(Nc2ncc(Cl)c(Nc3ccccc3[S+]([O-])CC)n2)c(OC)cc1C1CCN(C)CC1 (stereo not shown) [9e, N-(5-((5-Chloro-4-((2-(ethylsulfinyl)phenyl)amino)pyrimidin-2-yl)amino)-4-methoxy-2-(1-methylpiperidin-4-yl)phenyl)acrylamide] | 97.7 ± 50 nM | > 10000 nM | 170 ± 20 nM | –
C=CC(=O)Nc1cc(Nc2ncc(Cl)c(Nc3ccc(F)cc3[S+]([O-])CC)n2)c(OC)cc1C1CCN(C)CC1 (stereo not shown) [9f, N-(5-((5-Chloro-4-((2-(ethylsulfinyl)-4-fluorophenyl)amino)pyrimidin-2-yl)amino)-4-methoxy-2-(1-methylpiperidin-4-yl)phenyl)acrylamide] | 92.8 ± 60 nM | > 10000 nM | 550 ± 90 nM | –
C=CC(=O)Nc1cc(Nc2ncc(Cl)c(Nc3ccc(Cl)cc3[S+]([O-])CC)n2)c(OC)cc1C1CCN(C)CC1 (stereo not shown) [9g, N-(5-((5-Chloro-4-((4-chloro-2-(ethylsulfinyl)phenyl)amino)pyrimidin-2-yl)amino)-4-methoxy-2-(1-methylpiperidin-4-yl)phenyl)acrylamide] | 104 ± 50 nM | > 10000 nM | 69 ± 10 nM | –
C=CC(=O)Nc1cc(Nc2ncc(Cl)c(Nc3ccccc3[S+]([O-])C(C)C)n2)c(OC)cc1C1CCN(C)CC1 (stereo not shown) [9h, N-(5-((5-Chloro-4-((2-(isopropylsulfinyl)phenyl)amino)pyrimidin-2-yl)amino)-4-methoxy-2-(1-methylpiperidin-4-yl)phenyl)acrylamide] | 76.6 ± 20 nM | > 10000 nM | 68.9 to 78.2 nM | IC50 [1, 9]: 83.9 ± 30 nM
C=CC(=O)Nc1cc(Nc2ncc(Cl)c(Nc3ccc(F)cc3[S+]([O-])C(C)C)n2)c(OC)cc1C1CCN(C)CC1 (stereo not shown) [9i, N-(5-((5-Chloro-4-((4-fluoro-2-(isopropylsulfinyl)phenyl)amino)pyrimidin-2-yl)amino)-4-methoxy-2-(1-methylpiperidin-4-yl)phenyl)acrylamide] | 98.1 ± 60 nM | > 10000 nM | 309 ± 110 nM | –
Cc1cc(Nc2ncc(Cl)c(Nc3ccccc3S(=O)(=O)C(C)C)n2)c(OC(C)C)cc1C1CCNCC1 [Ceritinib, reference compound] | 22.1 ± 8 nM | – | 78.3 ± 30 nM | –
C=CC(=O)Nc1cc(Nc2nccc(-c3cn(C)c4ccccc34)n2)c(OC)cc1N(C)CCN(C)C [Osimertinib, reference compound] | – | – | – | IC50 [2]: 1720 ± 50 nM; IC50 (H2228 (EML4-ALK) cells; Homo sapiens, NCI-H2228, 72 h): 2016 ± 8 nM; IC50 [3]: 2250 ± 20 nM; IC50 [4]: 3240 ± 80 nM; IC50 ([1]; Homo sapiens, NCI-H1975, 72 h, read-out: IC50 H1975): 4.1 ± 1 nM; IC50 ([1]; Homo sapiens, NCI-H1975, read-out: IC50 H1975 (Table 2)): 4.1 ± 1 nM; IC50 [5]: 4340 ± 10 nM; IC50 [6]: 2130 ± 90 nM
